According to PMC7016953 (Cells, 2020):

Assays:
[1] = system: T1, hTRPM2; test: Selectivity profiling, fluo-4 [Ca2+]i response, TRPM2; format: cell-based, human; details: 100 µM
T1 construct: expressed in transfected cells
Description: Human embryonic kidney 293 (HEK293) cells were stably transfected with expression plasmids that encode hTRPC3-YFP, hTRPC6-YFP, hTRPC7-YFP, mTRPC4ß-YFP, rTRPV1-CFP, rTRPV2-YFP, rTRPV3-YFP, mTRPV4-YFP, or hTRPM2 as previously described. Cell lines were cultured in Earle’s minimum essential medium (MEM; Sigma, Munich, Germany), supplemented with 10% fetal calf serum (Gibco Thermo Fisher Scientific, Darmstadt, Germany), 2 mM L-glutamine, and required concentrations of geneticin in a range of 0.4–1 mg/mL. A HEK293mTRPC5-YFP cell line was maintained and induced as described before. […] For electrophysiological and single cell [Ca^2+]i imaging experiments, PC12 cells were plated onto 25 mm poly-L-lysine-coated glass coverslips and measured 24–48 h after seeding. […]
The primary compound screen and the generation of concentration response curves in HEK293 cells or in PC12 cells were performed by using a custom-made fluorescence plate imager built into a robotic liquid handling station equipped with a 96-tip multichannel head (Freedom Evo 150, Tecan, Männedorf, Switzerland) as described previously. […] Plates were mounted on the imager, and fluorescence signals were recorded with a cooled Zyla 5.5 camera (Andor, Belfast, UK) through a 515 nm long pass filter. […] When inhibitory potencies were evaluated, a second pipetting step with the respective reference agonist was performed. […]

[2] = system: T2, mouse TRPC3 ortholog; test: Single-cell [Ca2+]i analysis, fura-2-loaded HEK293 cells transiently overexpressing mouse TRPC3; format: cell-based; details: 50 µM, mean and S.D., n = 215 single cells; basal 311 ± 134 nM
T2 construct: expressed in transfected cells; host or cells: HEK293, transient
Description: The microfluorometric single-cell [Ca^2+]i analysis was performed on an inverted epifluorescence microscope (Carl Zeiss, Jena, Germany) and calibrated as described. Cells were grown on 25 mm coverslips and loaded with 4 µM fura-2/AM (AAT Bioquest, Sunnyvale, CA, U.S.A.) in HBS containing 0.2% BSA for 30 min at 37 °C. After gently rinsing the coverslips with HBS, coverslips were mounted in a bath chamber and superfused with HBS containing 0.035% BSA.

[3] = system: T3, TRPC7; test: Microfluorometric single-cell [Ca2+]i analysis, fura-2-loaded HEK cells stably expressing TRPC7; format: cell-based, human; details: 50 µM
T3 construct: expressed in transfected cells
Description: The microfluorometric single-cell [Ca^2+]i analysis was performed on an inverted epifluorescence microscope (Carl Zeiss, Jena, Germany) and calibrated as described. Cells were grown on 25 mm coverslips and loaded with 4 µM fura-2/AM (AAT Bioquest, Sunnyvale, CA, U.S.A.) in HBS containing 0.2% BSA for 30 min at 37 °C. […] Experiments were performed either in standard bath solution, containing 1 mM Ca^2+ (black lines and bars), or in a nominally Ca^2+-free HBS buffer, supplemented with 200 µM EGTA (grey lines and bars). Time courses of averaged responses (left), and statistical analysis of 6–11 independent imaging experiments with means and S.D. (right) are shown. Significant differences (p < 0.05, Student´s t-test with paired data: #, with unpaired data: *) are marked for the indicated comparisons; n.s.: difference is statistically not significant.

C[C@@H]1CC[C@H]2[C@@H](C)C(=O)O[C@@H]3O[C@@]4(C)CC[C@@H]1[C@]32OO4 [artemisinin]
[Ca2+]i response, TRPM2 [1]: none of the cell lines responded
[Ca2+]i reached after stimulation [2]: 1140 ± 635 nM
[Ca2+]i signal in TRPC7-expressing cells in Ca2+-free bath ([3]; nominally Ca2+-free HBS with 200 µM EGTA): abolished
[Ca2+]i response in TRPC7-overexpressing cells ([3]; standard bath 1 mM Ca2+): only a weak [Ca^2+]i signal
